Results: the NIST ThermoML archive (doi:10.1016/j.jct.2014.06.030)

Test: xn = mol fraction of the nth substance listed
Conditions: 100 kPa, Liquid; for speed of sound: Sing-around technique in a fixed-path interferometer; for mass density: Vibrating tube method

Cc1ccccc1Cl [2-chlorotoluene] + C1CCCCC1
Conditions | mass density, 298.15 K [kg/m3] | mass density, 303.15 K [kg/m3] | mass density, 308.15 K [kg/m3] | speed of sound, 298.15 K [m/s] | speed of sound, 303.15 K [m/s] | speed of sound, 308.15 K [m/s]
x1 = 0.1098 | 808.15 | 803.38 | 798.58 | 1251.3 | 1227.6 | 1204.7
x1 = 0.1437 | 818.67 | 813.9 | 809.09 | 1251 | 1227.7 | 1205
x1 = 0.1987 | 835.72 | 830.93 | 826.11 | 1251.1 | 1228.2 | 1205.9
x1 = 0.2356 | 847.14 | 842.33 | 837.5 | 1251.5 | 1228.8 | 1206.7
x1 = 0.2874 | 863.12 | 858.3 | 853.47 | 1252.4 | 1230 | 1208.1
x1 = 0.3256 | 874.88 | 870.06 | 865.22 | 1253.4 | 1231.2 | 1209.5
x1 = 0.3876 | 893.92 | 889.08 | 884.22 | 1255.3 | 1233.6 | 1212.2
x1 = 0.4135 | 901.85 | 897.01 | 892.15 | 1256.2 | 1234.8 | 1213.4
x1 = 0.4834 | 923.2 | 918.34 | 913.47 | 1259.3 | 1238.4 | 1217.4
x1 = 0.5243 | 935.64 | 930.78 | 925.9 | 1261.4 | 1240.7 | 1220
x1 = 0.5763 | 951.42 | 946.54 | 941.65 | 1264.3 | 1244 | 1223.6
x1 = 0.6143 | 962.9 | 958.02 | 953.13 | 1266.5 | 1246.6 | 1226.5
x1 = 0.6654 | 978.29 | 973.4 | 968.5 | 1269.9 | 1250.3 | 1230.7
x1 = 0.7154 | 993.29 | 988.4 | 983.48 | 1273.4 | 1254.3 | 1235
x1 = 0.7654 | 1008.2 | 1003.3 | 998.42 | 1277.2 | 1258.4 | 1239.6
x1 = 0.8165 | 1023.4 | 1018.5 | 1013.6 | 1281.3 | 1262.9 | 1244.4
x1 = 0.8324 | 1028.1 | 1023.2 | 1018.3 | 1282.6 | 1264.3 | 1246
x1 = 0.8965 | 1047.1 | 1042.2 | 1037.3 | 1288.4 | 1270.3 | 1252.3

C1CCOCC1 [tetrahydropyran] + C1CCCCC1
Conditions | mass density, 298.15 K [kg/m3] | mass density, 303.15 K [kg/m3] | mass density, 308.15 K [kg/m3] | speed of sound, 298.15 K [m/s] | speed of sound, 303.15 K [m/s] | speed of sound, 308.15 K [m/s]
x1 = 0.0987 | 782.47 | 777.69 | 772.88 | 1251.6 | 1226.7 | 1202.3
x1 = 0.1432 | 786.46 | 781.65 | 776.83 | 1250.7 | 1225.6 | 1201
x1 = 0.1876 | 790.51 | 785.69 | 780.84 | 1249.8 | 1224.6 | 1199.8
x1 = 0.2378 | 795.2 | 790.36 | 785.49 | 1249 | 1223.6 | 1198.7
x1 = 0.2791 | 799.14 | 794.28 | 789.39 | 1248.5 | 1223 | 1197.8
x1 = 0.3165 | 802.76 | 797.88 | 792.98 | 1248.1 | 1222.6 | 1197.3
x1 = 0.3782 | 808.86 | 803.96 | 799.03 | 1247.9 | 1222.4 | 1197
x1 = 0.4237 | 813.45 | 808.53 | 803.59 | 1248 | 1222.5 | 1197.1
x1 = 0.4521 | 816.36 | 811.43 | 806.48 | 1248.3 | 1222.7 | 1197.4
x1 = 0.4982 | 821.15 | 816.2 | 811.24 | 1248.8 | 1223.3 | 1198.1
x1 = 0.5318 | 824.7 | 819.74 | 814.76 | 1249.5 | 1224 | 1198.9
x1 = 0.5643 | 828.18 | 823.2 | 818.21 | 1250.2 | 1224.9 | 1199.9
x1 = 0.5918 | 831.15 | 826.17 | 821.16 | 1251 | 1225.7 | 1200.8
x1 = 0.6236 | 834.62 | 829.63 | 824.61 | 1252 | 1226.8 | 1202.1
x1 = 0.6982 | 842.94 | 837.92 | 832.88 | 1254.8 | 1230 | 1205.6
x1 = 0.7341 | 847.03 | 841.99 | 836.93 | 1256.4 | 1231.7 | 1207.7
x1 = 0.7949 | 854.07 | 849.02 | 843.94 | 1259.3 | 1235 | 1211.4
x1 = 0.8632 | 862.2 | 857.11 | 852 | 1262.9 | 1238.9 | 1215.8
